Assays:
Assay in all cases: relative viability (nuclei count vs DMSO), 5 days (fraction); higher = more cells survive
[1] = compound: CN(C)CC1=CC(=CC=C1)N=C(C2=CC=CC=C2)C3=C(NC4=C3C=CC(=C4)C(=O)N(C)C)O + COc1cc2c(Oc3ccc(NC(=O)C4(C(=O)Nc5ccc(F)cc5)CC4)cc3F)ccnc2cc1OCCCN1CCOCC1 [Foretinib] (partner 0.25 µM)
Summary of the method: (§1)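 For relative viability, nuclei counts in treated wells were divided by those in vehicle wells. Lung cancer cell lines had been pin-tool dosed in 1536-well plates the day after seeding and cultured for 5 days, then fixed and stained in one step (final 0.05% Triton X-100, 1% formaldehyde, 1 ug/ml Hoechst) and imaged at 4×. Doses were one drug alone or a fixed anchor-drug dose plus five library-drug doses (not always all listed) in √10 steps, and values are duplicate-plate medians.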

[2] = compound: CN(C)CC1=CC(=CC=C1)N=C(C2=CC=CC=C2)C3=C(NC4=C3C=CC(=C4)C(=O)N(C)C)O + CC1(C)CCC(c2ccc(Cl)cc2)=C(CN2CCN(c3ccc(C(=O)NS(=O)(=O)c4ccc(N[C@H](CCN5CCOCC5)CSc5ccccc5)c(S(=O)(=O)C(F)(F)F)c4)cc3)CC2)C1 [Navitoclax] (partner 0.5 µM)
Summary of the method: as §1

[3] = compound: CN(C)CC1=CC(=CC=C1)N=C(C2=CC=CC=C2)C3=C(NC4=C3C=CC(=C4)C(=O)N(C)C)O + C[C@]1(O)C[C@@H](c2nc(-c3ccc4ccc(-c5ccccc5)nc4c3)c3c(N)nccn32)C1 [Linsitinib] (partner 1 µM)
Summary of the method: as §1

[4] = compound: CN(C)CC1=CC(=CC=C1)N=C(C2=CC=CC=C2)C3=C(NC4=C3C=CC(=C4)C(=O)N(C)C)O + CCNC(=O)c1noc(-c2cc(C(C)C)c(O)cc2O)c1-c1ccc(CN2CCOCC2)cc1 [Luminespib] (partner 0.01 µM)
Summary of the method: as §1

| Cell Line | relative viability ([1]; first compound 0.08 µM) | relative viability ([1]; first compound 0.253 µM) | relative viability ([1]; first compound 0.8 µM) | relative viability ([1]; first compound 2.53 µM) | relative viability ([1]; first compound 8 µM) | relative viability ([2]; first compound 0.08 µM) | relative viability ([2]; first compound 0.253 µM) | relative viability ([2]; first compound 0.8 µM) | relative viability ([2]; first compound 2.53 µM) | relative viability ([2]; first compound 8 µM) | relative viability ([3]; first compound 0.08 µM) | relative viability ([3]; first compound 0.253 µM) | relative viability ([3]; first compound 0.8 µM) | relative viability ([3]; first compound 2.53 µM) | relative viability ([3]; first compound 8 µM) | relative viability ([4]; first compound 0.08 µM) | relative viability ([4]; first compound 0.253 µM) | relative viability ([4]; first compound 0.8 µM) | relative viability ([4]; first compound 2.53 µM) | relative viability ([4]; first compound 8 µM) |
| --- | --- | --- | --- | --- | --- | --- | --- | --- | --- | --- | --- | --- | --- | --- | --- | --- | --- | --- | --- | --- |
| 201T | 1.12 | 1.01 | 1.07 | 0.957 | 0.774 | 1.2 | 1.23 | 1.14 | 1.17 | 1.18 | 1.07 | 1.06 | 0.937 | 1.04 | 0.927 | 1.06 | 0.993 | 1.01 | 1.05 | 0.802 |
| A549 | 0.988 | 0.927 | 0.948 | 0.899 | 1.02 | 1.23 | 1.24 | 1.19 | 1.2 | 1.2 | 0.595 | 0.575 | 0.518 | 0.544 | 0.475 | – | – | – | – | – |
| A-427 | 1.07 | 1.17 | 1.07 | 0.986 | 0.883 | 0.96 | 0.961 | 1.01 | 0.92 | 0.964 | 1.08 | 1.1 | 1.13 | 1.01 | 1.06 | 0.995 | 0.929 | 1 | 0.667 | 0.756 |
| ABC-1 | 1.31 | 1.12 | 0.851 | 1 | 1.28 | – | – | – | – | – | 0.773 | 0.965 | 0.709 | 0.728 | 0.73 | 0.609 | 0.618 | 0.422 | 0.445 | 0.552 |
| BEN | 0.705 | 0.68 | 0.641 | 0.68 | 0.596 | 0.0778 | 0.06 | 0.0663 | 0.0535 | 0.0691 | 0.98 | 0.876 | 0.793 | 0.846 | 0.75 | 0.338 | 0.269 | 0.312 | 0.212 | 0.437 |
| CAL-12T | 1.09 | 1.22 | 1.44 | 0.864 | 1.29 | 1.11 | 1.32 | 1.21 | 0.963 | 1.25 | 0.779 | 0.838 | 0.799 | 0.771 | 0.841 | 0.27 | 0.451 | 0.877 | 0.542 | 0.376 |
| COR-L23 | 1.08 | 0.972 | 1.03 | 0.88 | 0.925 | 1.02 | 1.07 | 1.07 | 0.77 | 0.791 | 1.06 | 0.889 | 1.07 | 0.878 | 0.759 | 0.752 | 0.787 | 0.791 | 0.523 | 0.665 |
| COR-L 105 | 1.1 | 1.05 | 0.967 | 0.926 | 0.991 | 0.664 | 0.795 | 0.762 | 0.733 | 0.562 | 0.888 | 0.838 | 1.1 | 1.02 | 0.805 | 0.865 | 0.688 | 0.567 | 1.23 | 0.622 |
| ChaGo-K-1 | 0.945 | 0.911 | 1.04 | 0.902 | 0.771 | 1.16 | 1.17 | 1.27 | – | 1 | – | – | – | – | – | 0.688 | 0.612 | 0.668 | 0.529 | 0.598 |
| EKVX | 0.88 | 1.06 | 0.555 | 0.776 | 0.804 | 0.908 | 0.82 | 0.956 | 0.885 | 1 | 1.1 | 0.925 | 1.05 | 1.06 | 1.07 | 0.864 | 0.921 | 1 | 0.927 | 1.06 |
| EMC-BAC-2 | 1.11 | 0.99 | 0.963 | 0.944 | 0.958 | 1.13 | 1.15 | 1.17 | 1.18 | 1.1 | 0.884 | 0.797 | 0.778 | 0.787 | 0.717 | 1.2 | 1.28 | 1.15 | 1.16 | 1.11 |
| EPLC-272H | 0.654 | 0.776 | 0.534 | 0.681 | 0.51 | 1.35 | 1.08 | 0.913 | 1.14 | 1.11 | 1.21 | 1.11 | 0.937 | 1.15 | 0.934 | 0.309 | 0.363 | 0.239 | 0.308 | 0.211 |
| H3255 | 0.857 | 0.857 | 0.631 | 1.04 | 0.848 | 0.608 | 0.457 | 0.514 | 0.545 | 0.552 | 0.881 | 0.959 | 0.924 | 0.954 | 1.03 | 0.899 | 0.894 | 0.751 | 0.836 | 0.998 |
| HARA | 0.398 | 1.02 | 1.06 | 0.867 | 0.79 | 1.14 | 1.14 | 1.18 | 1.15 | 1.13 | 0.965 | 1.04 | 0.865 | 0.921 | 0.715 | 0.867 | 0.742 | 0.763 | 0.747 | 0.656 |
